Results: PubChem BioAssay AID1919001 (Molecular Pharmacology Branch, DTP, NCI, 2023)
Several values for one entry are separate records, joined by “and”; a condition that tells them apart may be missing. Identical values can stand only once.

Tested on: 699152-130-R-J1-PDC complex spheroid growth
Experiment: Anticancer human tumor 699152-130-R-J1-PDC patient-derived pancreatic carcinoma cell line growth inhibition [AhR]
Conditions: for viability, T/C: stronger effect = lower value
Method in brief: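 Complex tumor spheroids co-cultured with HUVEC and human MSC stroma; AhR antagonists tested in combination with standard-of-care and investigational agents. Top concentration at or near clinical Cmax (else 10 microM), half-log dilutions; growth expressed as percent test/control.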

[1] = curve of first compound, second compound 0.1 µM
[2] = curve of first compound, second compound 0.316 µM
[3] = curve of first compound, second compound 1 µM
[4] = curve of first compound, second compound 3.16 µM
[5] = curve of first compound, second compound 10 µM
[6] = second compound 0.1 µM, first compound 0.0316 µM
[7] = second compound 0.1 µM, first compound 0.1 µM
[8] = second compound 0.1 µM, first compound 0.316 µM
[9] = second compound 0.1 µM, first compound 1 µM
[10] = second compound 0.1 µM, first compound 3.16 µM
[11] = second compound 0.1 µM, first compound 10 µM
[12] = second compound 0.316 µM, first compound 0.0316 µM
[13] = second compound 0.316 µM, first compound 0.1 µM
[14] = second compound 0.316 µM, first compound 0.316 µM
[15] = second compound 0.316 µM, first compound 1 µM
[16] = second compound 0.316 µM, first compound 3.16 µM
[17] = second compound 0.316 µM, first compound 10 µM
[18] = second compound 1 µM, first compound 0.0316 µM
[19] = second compound 1 µM, first compound 0.1 µM
[20] = second compound 1 µM, first compound 0.316 µM
[21] = second compound 1 µM, first compound 1 µM
[22] = second compound 1 µM, first compound 3.16 µM
[23] = second compound 1 µM, first compound 10 µM
[24] = second compound 3.16 µM, first compound 0.0316 µM
[25] = second compound 3.16 µM, first compound 0.1 µM
[26] = second compound 3.16 µM, first compound 0.316 µM
[27] = second compound 3.16 µM, first compound 1 µM
[28] = second compound 3.16 µM, first compound 3.16 µM
[29] = second compound 3.16 µM, first compound 10 µM
[30] = second compound 10 µM, first compound 0.0316 µM
[31] = second compound 10 µM, first compound 0.1 µM
[32] = second compound 10 µM, first compound 0.316 µM
[33] = second compound 10 µM, first compound 1 µM
[34] = second compound 10 µM, first compound 3.16 µM
[35] = second compound 10 µM, first compound 10 µM
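Note: compound exposure lasted 7 days after spheroids had grown for 3 days.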

Which results are given for `Nc1ncn(C2CC(O)C(CO)S2)c(=O)n1` (configuration not stated) + Cc1cncc(-c2nc(NCCc3c[nH]c4ccccc34)c3ncn(C(C)C)c3n2)c1?
IC50 [1]: > 0.3 µM; IC50 [2]: > 0.3 µM; IC50 [3]: > 0.3 µM; IC50 [4]: > 0.3 µM; IC50 [5]: < 0.000949 µM; viability, T/C (second compound 0.1 µM, first compound 0.000949 µM): 105%; viability, T/C (second compound 0.1 µM, first compound 0.003 µM): 93.8%; viability, T/C (second compound 0.1 µM, first compound 0.00949 µM): 99.9%; viability, T/C (second compound 0.1 µM, first compound 0.03 µM): 99.5%; viability, T/C (second compound 0.1 µM, first compound 0.0949 µM): 90.8%; viability, T/C (second compound 0.1 µM, first compound 0.3 µM): 91.4%; viability, T/C (second compound 0.316 µM, first compound 0.000949 µM): 112%; viability, T/C (second compound 0.316 µM, first compound 0.003 µM): 95.9%; viability, T/C (second compound 0.316 µM, first compound 0.00949 µM): 97%; viability, T/C (second compound 0.316 µM, first compound 0.03 µM): 103%; viability, T/C (second compound 0.316 µM, first compound 0.0949 µM): 101%; viability, T/C (second compound 0.316 µM, first compound 0.3 µM): 107%; viability, T/C (second compound 1 µM, first compound 0.000949 µM): 126%; viability, T/C (second compound 1 µM, first compound 0.003 µM): 110%; viability, T/C (second compound 1 µM, first compound 0.00949 µM): 106%; viability, T/C (second compound 1 µM, first compound 0.03 µM): 110%; viability, T/C (second compound 1 µM, first compound 0.0949 µM): 113%; viability, T/C (second compound 1 µM, first compound 0.3 µM): 111%; viability, T/C (second compound 3.16 µM, first compound 0.000949 µM): 91.6%; viability, T/C (second compound 3.16 µM, first compound 0.003 µM): 88.8%; viability, T/C (second compound 3.16 µM, first compound 0.00949 µM): 95.1%; viability, T/C (second compound 3.16 µM, first compound 0.03 µM): 94.6%; viability, T/C (second compound 3.16 µM, first compound 0.0949 µM): 107%; viability, T/C (second compound 3.16 µM, first compound 0.3 µM): 104%; viability, T/C (second compound 10 µM, first compound 0.000949 µM): 23.9%; viability, T/C (second compound 10 µM, first compound 0.003 µM): 21%; viability, T/C (second compound 10 µM, first compound 0.00949 µM): 22.8%; viability, T/C (second compound 10 µM, first compound 0.03 µM): 22.5%; viability, T/C (second compound 10 µM, first compound 0.0949 µM): 19.6%; viability, T/C (second compound 10 µM, first compound 0.3 µM): 20.4%

How did the IC50 [1] turn out when `Nc1ccccc1NC(=O)c1ccc(CNC(=O)OCc2cccnc2)cc1` + Cc1ccccc1N=Nc1ccc(NC(=O)c2ccnn2C)c(C)c1 was run?
Its IC50 is 7.66 µM.

What about the IC50 [2] of the same compound?
Its IC50 is 6.79 µM.

And the IC50 [3]?
Its IC50 is 7.2 µM.

What about the IC50 [4] of the same compound?
Its IC50 is 8.03 µM.

What about the IC50 [5] of the same compound?
Its IC50 is over 10 µM.

What about the viability, T/C [6] of the same compound?
The viability, T/C was 85.7%.

What about the viability, T/C [7] of the same compound?
The viability, T/C was 97.6%.

What about the viability, T/C [8] of the same compound?
The viability, T/C was 102%.

And the viability, T/C [9]?
Its viability, T/C is 111%.

And the viability, T/C [10]?
Its viability, T/C is 77.8%.

What about the viability, T/C [11] of the same compound?
Its viability, T/C is 41.6%.

And the viability, T/C [12]?
The viability, T/C was 90.6%.

And the viability, T/C [13]?
Its viability, T/C is 93.8%.

What about the viability, T/C [14] of the same compound?
The viability, T/C was 89.5%.

What about the viability, T/C [15] of the same compound?
The viability, T/C was 90.7%.

What about the viability, T/C [16] of the same compound?
The viability, T/C was 67.5%.

And the viability, T/C [17]?
Its viability, T/C is 41.1%.

What about the viability, T/C [18] of the same compound?
Its viability, T/C is 97.1%.

And the viability, T/C [19]?
Its viability, T/C is 95.3%.

And the viability, T/C [20]?
The viability, T/C was 107%.

And the viability, T/C [21]?
Its viability, T/C is 97.4%.

What about the viability, T/C [22] of the same compound?
The viability, T/C was 76.6%.

And the viability, T/C [23]?
Its viability, T/C is 39.4%.

And the viability, T/C [24]?
The viability, T/C was 93.2%.

What about the viability, T/C [25] of the same compound?
Its viability, T/C is 93.3%.

What about the viability, T/C [26] of the same compound?
The viability, T/C was 104%.

What about the viability, T/C [27] of the same compound?
Its viability, T/C is 112%.

And the viability, T/C [28]?
Its viability, T/C is 73.2%.

What about the viability, T/C [29] of the same compound?
The viability, T/C was 44.5%.

And the viability, T/C [30]?
The viability, T/C was 115%.

And the viability, T/C [31]?
The viability, T/C was 116%.

What about the viability, T/C [32] of the same compound?
Its viability, T/C is 109%.

What about the viability, T/C [33] of the same compound?
Its viability, T/C is 102%.

And the viability, T/C [34]?
Its viability, T/C is 91.8%.

And the viability, T/C [35]?
The viability, T/C was 58.2%.

With `CC1COCCN1c1cc(-c2ccnn2C)c2ccnc(-c3ccn[nH]3)c2n1` (configuration not stated) as the compound, how does the viability, T/C (compound 0.00316 µM) read?
Its viability, T/C is 106% and 92.5% and 103%.

What about the viability, T/C (compound 0.01 µM) of the same compound?
The viability, T/C was 106% and 96.9% and 109%.

And the viability, T/C (compound 0.0316 µM)?
The viability, T/C was 95.6% and 95.9% and 92.5%.

What about the viability, T/C (compound 0.1 µM) of the same compound?
The viability, T/C was 85.9% and 90.6% and 95.9%.

What about the viability, T/C (compound 0.316 µM) of the same compound?
The viability, T/C was 72.5% and 84.8% and 77.6%.

And the viability, T/C (compound 1 µM)?
The viability, T/C was 59.9% and 58.5% and 61.5%.

What about the IC50 (curve of compound) of the same compound?
The IC50 was over 1 µM.

What does the source list for `COc1cc(Nc2ncc3c(n2)-c2ccc(Cl)cc2C(c2c(F)cccc2OC)=NC3)ccc1C(=O)O` + CC(CO)NC(=O)c1cc(-c2ccc(Cl)cc2)nn(-c2cnn(C)c2)c1=O?
IC50 [1]: > 10 µM; IC50 [2]: > 10 µM; IC50 [3]: > 10 µM; IC50 [4]: > 10 µM; IC50 [5]: > 10 µM; viability, T/C [6]: 92.5%; viability, T/C [7]: 79.1%; viability, T/C [8]: 78.6%; viability, T/C [9]: 65.3%; viability, T/C [10]: 63.8%; viability, T/C [11]: 62.3%; viability, T/C [12]: 97%; viability, T/C [13]: 94.4%; viability, T/C [14]: 74.5%; viability, T/C [15]: 63%; viability, T/C [16]: 65.1%; viability, T/C [17]: 60.9%; viability, T/C [18]: 95%; viability, T/C [19]: 84%; viability, T/C [20]: 86%; viability, T/C [21]: 65.8%; viability, T/C [22]: 64.1%; viability, T/C [23]: 59.7%; viability, T/C [24]: 85%; viability, T/C [25]: 76.1%; viability, T/C [26]: 85.3%; viability, T/C [27]: 59.6%; viability, T/C [28]: 60.2%; viability, T/C [29]: 56.1%; viability, T/C [30]: 78.7%; viability, T/C [31]: 85.8%; viability, T/C [32]: 83%; viability, T/C [33]: 73.1%; viability, T/C [34]: 69.7%; viability, T/C [35]: 58.9%

For `COc1ccc([C@@H](O)c2cc(-c3ncnc4cc(N5CCOCC5)ccc34)c(F)cc2Cl)nn1` + Cc1ccccc1N=Nc1ccc(NC(=O)c2ccnn2C)c(C)c1, which IC50 [1] is on record?
The IC50 was 4.78 µM.

And the IC50 [2]?
Its IC50 is 4.07 µM.

What about the IC50 [3] of the same compound?
Its IC50 is 5.29 µM.

And the IC50 [4]?
Its IC50 is 5.32 µM.

And the IC50 [5]?
The IC50 was 4.79 µM.

What about the viability, T/C [6] of the same compound?
The viability, T/C was 93.5%.

And the viability, T/C [7]?
Its viability, T/C is 108%.

What about the viability, T/C [8] of the same compound?
The viability, T/C was 90%.

What about the viability, T/C [9] of the same compound?
Its viability, T/C is 81.4%.

What about the viability, T/C [10] of the same compound?
The viability, T/C was 61.7%.

What about the viability, T/C [11] of the same compound?
The viability, T/C was 30.5%.

And the viability, T/C [12]?
Its viability, T/C is 83.7%.

And the viability, T/C [13]?
The viability, T/C was 91.8%.

What about the viability, T/C [14] of the same compound?
Its viability, T/C is 97.5%.

And the viability, T/C [15]?
The viability, T/C was 80%.

And the viability, T/C [16]?
The viability, T/C was 55.6%.

And the viability, T/C [17]?
Its viability, T/C is 32.3%.

What about the viability, T/C [18] of the same compound?
The viability, T/C was 96.8%.

What about the viability, T/C [19] of the same compound?
The viability, T/C was 91.8%.

And the viability, T/C [20]?
The viability, T/C was 87.2%.

And the viability, T/C [21]?
Its viability, T/C is 79.5%.

What about the viability, T/C [22] of the same compound?
The viability, T/C was 61.1%.

What about the viability, T/C [23] of the same compound?
Its viability, T/C is 35.6%.

What about the viability, T/C [24] of the same compound?
The viability, T/C was 93.8%.

And the viability, T/C [25]?
Its viability, T/C is 98.4%.

And the viability, T/C [26]?
Its viability, T/C is 90%.

And the viability, T/C [27]?
Its viability, T/C is 86.5%.

And the viability, T/C [28]?
Its viability, T/C is 61.9%.

And the viability, T/C [29]?
Its viability, T/C is 35.3%.

What about the viability, T/C [30] of the same compound?
The viability, T/C was 107%.

And the viability, T/C [31]?
The viability, T/C was 111%.

And the viability, T/C [32]?
The viability, T/C was 110%.

And the viability, T/C [33]?
The viability, T/C was 94.5%.

What about the viability, T/C [34] of the same compound?
Its viability, T/C is 61%.

What about the viability, T/C [35] of the same compound?
The viability, T/C was 31.1%.
